Values quoted from earlier work in patent US20030114475A1, “Methods for the treatment of addiction” (Addiction Therapies, Inc., priority 2001, published 2003).

Legend:
[1] = in vivo
[2] = tested on: cocaine self-administration
dopamine transporter = dopamine transporter (Homo sapiens, UniProt Q01959)
[3] = in vivo; remark: listed apart in the source

Sequence of dopamine transporter (Q01959 whole entry): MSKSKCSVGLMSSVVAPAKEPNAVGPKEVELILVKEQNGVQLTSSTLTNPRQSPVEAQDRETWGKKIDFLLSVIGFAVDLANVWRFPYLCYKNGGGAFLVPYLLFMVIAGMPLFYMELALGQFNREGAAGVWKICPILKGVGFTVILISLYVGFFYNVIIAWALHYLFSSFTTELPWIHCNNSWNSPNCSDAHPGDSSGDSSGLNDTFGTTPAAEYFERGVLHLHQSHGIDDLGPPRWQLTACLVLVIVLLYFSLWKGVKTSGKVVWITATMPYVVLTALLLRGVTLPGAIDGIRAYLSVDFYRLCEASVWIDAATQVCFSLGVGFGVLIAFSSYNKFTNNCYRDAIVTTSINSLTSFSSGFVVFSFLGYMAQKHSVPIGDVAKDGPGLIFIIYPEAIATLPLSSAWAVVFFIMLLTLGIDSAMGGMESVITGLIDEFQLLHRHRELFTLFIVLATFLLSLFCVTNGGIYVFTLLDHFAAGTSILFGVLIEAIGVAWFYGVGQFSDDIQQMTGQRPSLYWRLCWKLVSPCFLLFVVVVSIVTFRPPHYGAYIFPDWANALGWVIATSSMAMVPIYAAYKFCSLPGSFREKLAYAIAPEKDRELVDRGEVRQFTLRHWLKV

Compound | elimination half-life [1] [h] | time to peak plasma concentrations [1] [h] | effect on cocaine self-administration ([2]; rats) | lever presses for a cocaine infusion after pre-treatment ([2]; rats pre-treated with 53.8 mg/kg, oral, decreased from 150±20 lever presses, unpublished observations, Dr. Susan Schenck) [lever presses] | affinity and selectivity for the dopamine transporter (dopamine transporter) | oral availability [3]
COC(=O)C(c1ccccc1)C1CCCCN1 (stereo not drawn) [Methylphenidate, methylphenidate] | 2 to 3 | 1 to 3 | – | – | – | –
Cc1ccc(-c2cc([C@@H]3C4CCC(C[C@@H]3c3ccc(Cl)cc3)N4C)on2)cc1 (stereo partly drawn) [RTI-336] | – | – | inhibits cocaine self-administration | 36±14 | high affinity and selectivity | orally available
